These results are taken from ChEMBL document CHEMBL5131389, “PSMA-targeted small-molecule docetaxel conjugate: Synthesis and preclinical evaluation” (Eur J Med Chem, 2022).

The target in data set [1] is Glutamate carboxypeptidase 2 (Homo sapiens, UniProt Q04609). Briefly: Inhibition of GCPII (unknown origin).
Data set [2] relates to CWR22R. Briefly: Cytotoxicity against human 22Rv1 cells assessed as reduction in cell viability measured after 72 hrs by MTT assay. It counts as functional. (Tetrazolium assays rely on reduction of a dye to a coloured formazan, in cell work by metabolically active cells.)
Data set [3] concerns PC-3. As to the kind of experiment: Cytotoxicity against human PC-3 cells assessed as reduction in cell viability measured after 72 hrs by MTT assay. It counts as functional.
Data set [4] is described as follows: Selectivity ratio of CC50 for cytotoxicity against human PC-3 cells to CC50 for cytotoxicity against human 22Rv1 cells.
Data set [5] is described as follows: Chronic toxicity in rat assessed as increase in relative kidney weight administered intravenously as pluronic F127 formulation at 4 intervals for 21 days and observed 3 weeks post last injection. Type of data set: tissue-based. The conditions noted are these: in vivo, iv, 2544 h, time 106 day.
Data set [6] has as its system PC-3. As to the kind of experiment: Induction of ROS generation in human PC-3 cells at 800 mV holding potential measured after 1 hr by patch clamp amplifier based optical inverted microscopic analysis. It counts as functional, cell-based. (In general: In patch-clamp work, channel activity is measured electrically.)
Data set [7] relates to CWR22R. Briefly: Effect on cell stiffness in human 22Rv1 cells assessed as increase in young's modulus at 1 nM measured after 1 hr by topography based scanning ion-conductance microscopic analysis. It counts as functional.
Data set [8] deals with PC-3. Briefly: Effect on cell stiffness in human PC-3 cells assessed as increase in young's modulus at 1 nM measured after 1 hr by topography based scanning ion-conductance microscopic analysis. Type of data set: functional.
Data set [9] in a line: Chronic toxicity in rat assessed as increase in creatinine concentration at […], iv administered as pluronic F127 formulation at 4 intervals for 21 days and observed 3 weeks post last injection relative to control. Type of data set: organism-based. The settings on record: in vivo, 2544 h, time 106 day.
Data set [10] in a line: Aqueous solubility of compound. Type of data set: physicochemical.
The test system of data set [11] is CWR22R. Briefly: Antitumor activity against human 22Rv1 cells xenografted in Balb/c nude mouse assessed as tumor growth inhibition at 10 mg/kg, ip administered daily for 5 days and measured at day 34 relative to control. It counts as functional. Also on record: scale not given: the % may be the effect or the level left. The settings on record: time 34 day.
Data set [12] is described as follows: Toxicity in Balb/c nude mouse xenografted with human 22Rv1 cells assessed as animal death at 10 mg/kg, ip measured upto 30 days. Type of data set: organism-based, CWR22R. The conditions noted are these: in vivo, 720 h, time < 30 day.
In data set [13] the test system is DU-145. Briefly: Antitumor activity against human DU-145 cells xenografted in BALB/c nude mouse assessed as tumor growth inhibition at 24.8 mg/kg, ip measured upto 30 days. It counts as functional. The settings on record: DU-145, 720 h, time <= 30 day, read-out: TGI. A general note: A xenograft is tissue or cells of one species grown in another, often human tumour cells in immunodeficient mice.

For data set [14], the system named is DU-145. As to the kind of experiment: Antitumor activity against human DU-145 cells xenografted in BALB/c nude mouse assessed as reduction in tumor growth index at 24.8 mg/kg, ip measured upto 30 days (reference value: 799 +/- 121.8 %). Type of data set: functional. Also on record: scale not given: the % may be the effect or the level left. The conditions noted are these: time <= 30 day.

Data set [15] deals with DU-145. Briefly: Antitumor activity against human DU-145 cells xenografted in BALB/c nude mouse assessed as tumor growth inhibition at 12.4 mg/kg, ip measured upto 30 days. The conditions noted are these: DU-145, 720 h, time <= 30 day, read-out: TGI. Type of data set: functional.
Data set [16] relates to DU-145. As to the kind of experiment: Antitumor activity against human DU-145 cells xenografted in BALB/c nude mouse assessed as reduction in tumor growth index at 12.4 mg/kg, ip measured upto 30 days (reference value: 799 +/- 121.8 %). Type of data set: functional. Also noted: scale not given: the % may be the effect or the level left. The settings on record: time <= 30 day.

A short description of data set [17]: Toxicity in BALB/c nude mouse xenografted with human DU-145 cells assessed as animal death at 12.4 to 24.8 mg/kg, ip measured on day 8. Type of data set: organism-based. The conditions noted are these: in vivo, dose 12.4-24.8 mg/kg, time 8 day, read-out: Activity.
Data set [18] is described as follows: Acute toxicity in iv dosed ICR mouse assessed as lethal dose. It counts as organism-based. The conditions noted are these: in vivo.
A short description of data set [19]: Chronic toxicity in rat assessed as hair loss administered intravenously as pluronic F127 formulation at 4 intervals for 21 days and observed 3 weeks post last injection. The settings on record: in vivo, iv, 2544 h, time 106 day.
A short description of data set [20]: Chronic toxicity in rat assessed as reduction in grooming frequency at 15.16 mg/kg, iv administered as pluronic F127 formulation at 4 intervals for 21 days and observed 3 weeks post last injection. Type of data set: organism-based. The settings on record: in vivo, 2544 h, time 106 day.
Data set [21] can be described thus: Chronic toxicity in rat assessed as reduction in getting up frequency at 15.16 mg/kg, iv administered as pluronic F127 formulation at 4 intervals for 21 days and observed 3 weeks post last injection. Type of data set: organism-based. The settings on record: in vivo, 2544 h, time 106 day.
A short description of data set [22]: Chronic toxicity in rat assessed as neurological disorder administered intravenously as pluronic F127 formulation at 4 intervals for 21 days and observed 3 weeks post last injection. The conditions noted are these: in vivo, iv, 2544 h, time 106 day.
Data set [23] is described as follows: Chronic toxicity in rat assessed as change in alkaline phosphatase level at […], iv administered as pluronic F127 formulation at 4 intervals for 21 days and observed 3 weeks post last injection relative to control. Type of data set: organism-based. The settings on record: in vivo, 2544 h, time 106 day.
A short description of data set [24]: Chronic toxicity in rat assessed as change in erythrocytes in blood administered intravenously as pluronic F127 formulation at 4 intervals for 21 days and observed 3 weeks post last injection relative to control. It counts as cell-based. The settings on record: iv, 2544 h, time 106 day.
The nature of data set [25]: Chronic toxicity in rat assessed as change in volume of excreted urine administered intravenously as pluronic F127 formulation at 4 intervals for 21 days and observed 3 weeks post last injection relative to control. The settings on record: in vivo, iv, 2544 h, time 106 day.
The nature of data set [26]: Chronic toxicity in rat assessed as increase in relative mass of liver administered intravenously as pluronic F127 formulation at 4 intervals for 21 days and observed 3 weeks post last injection relative to control. It counts as tissue-based. The conditions noted are these: in vivo, iv, 2544 h, time 106 day.
A short description of data set [27]: Chronic toxicity in rat assessed as change in relative heart mass administered intravenously as pluronic F127 formulation at 4 intervals for 21 days and observed 3 weeks post last injection. It counts as tissue-based. The settings on record: in vivo, iv, 2544 h, time 106 day.
Data set [28] is described as follows: Chronic toxicity in rat assessed as increase in relative lung mass administered intravenously as pluronic F127 formulation for 4 intervals of 21 days and observed 3 weeks post last injection relative to control. The conditions noted are these: in vivo, iv, 2544 h, time 106 day.
A short description of data set [29]: Chronic toxicity in rat assessed as increase in relative spleen mass administered intravenously as pluronic F127 formulation at 4 intervals for 21 days and observed 3 weeks post last injection relative to control. Type of data set: tissue-based. The conditions noted are these: in vivo, iv, 2544 h, time 106 day.
A short description of data set [30]: Chronic toxicity in rat assessed as increase in relative brain mass administered intravenously as pluronic F127 formulation at 4 intervals for 21 days and observed 3 weeks post last injection relative to control. The conditions noted are these: in vivo, iv, 2544 h, time 106 day. Type of data set: tissue-based.
The nature of data set [31]: Chronic toxicity in rat assessed as increase in relative mass of stomach administered intravenously as pluronic F127 formulation at 4 intervals for 21 days and observed 3 weeks post last injection relative to control. The conditions noted are these: in vivo, iv, 2544 h, time 106 day. It counts as tissue-based.
Data set [32] in a line: Chronic toxicity in rat assessed as increase in relative mass of pancreas administered intravenously as pluronic F127 formulation at 4 intervals for 21 days and observed 3 weeks post last injection relative to control. It counts as tissue-based. The settings on record: in vivo, iv, 2544 h, time 106 day.
Data set [33] can be described thus: Chronic toxicity in rat assessed as decrease in relative mass of testes administered intravenously as pluronic F127 formulation at 4 intervals for 21 days and observed 3 weeks post last injection relative to control. The conditions noted are these: in vivo, iv, 2544 h, time 106 day.
A short description of data set [34]: Chronic toxicity in rat assessed as increase in relative mass of adrenal gland administered intravenously as pluronic F127 formulation at 4 intervals for 21 days and observed 3 weeks post last injection relative to control. Type of data set: tissue-based. The settings on record: in vivo, iv, 2544 h, time 106 day.
Data set [35] is described as follows: Chronic toxicity in Soviet Chinchilla rabbit assessed as animal death administered intravenously as pluronic F127 formulation at 4 intervals for 21 days and observed one week post first injection. Also noted: species or system Oryctolagus cuniculus. The conditions noted are these: in vivo, iv, 168 h, time 7 day.

pIC50: −log10 of the molar value. Converted amounts (≈) assume the structure as drawn. “And” between values parts separate entries of the source, which are not always exact repeats. Equal values may be shown once. The source made the active and inactive calls. The calls are words filed in the database; no cut-off is given here.

Chain of Glutamate carboxypeptidase 2 (Q04609 whole entry): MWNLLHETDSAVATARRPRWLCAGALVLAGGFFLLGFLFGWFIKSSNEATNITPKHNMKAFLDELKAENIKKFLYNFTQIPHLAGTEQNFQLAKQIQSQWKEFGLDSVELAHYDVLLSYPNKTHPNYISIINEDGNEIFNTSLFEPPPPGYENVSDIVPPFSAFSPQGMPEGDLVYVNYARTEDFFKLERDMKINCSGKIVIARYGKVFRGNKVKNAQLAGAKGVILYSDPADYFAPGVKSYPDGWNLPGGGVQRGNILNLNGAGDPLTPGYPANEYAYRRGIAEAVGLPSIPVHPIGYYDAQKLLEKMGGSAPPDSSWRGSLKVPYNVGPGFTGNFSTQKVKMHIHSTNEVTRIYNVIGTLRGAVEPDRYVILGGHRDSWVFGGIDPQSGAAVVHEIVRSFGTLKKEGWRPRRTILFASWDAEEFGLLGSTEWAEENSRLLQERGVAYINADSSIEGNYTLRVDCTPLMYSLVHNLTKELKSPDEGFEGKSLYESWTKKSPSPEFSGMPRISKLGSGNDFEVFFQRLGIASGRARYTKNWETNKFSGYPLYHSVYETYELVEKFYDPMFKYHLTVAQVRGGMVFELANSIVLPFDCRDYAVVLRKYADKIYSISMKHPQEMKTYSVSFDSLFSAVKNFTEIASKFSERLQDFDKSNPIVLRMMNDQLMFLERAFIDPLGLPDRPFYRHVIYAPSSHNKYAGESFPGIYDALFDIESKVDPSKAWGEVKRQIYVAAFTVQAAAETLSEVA

`[N-]=[N+]=NCCCNC(=O)[C@H](Cc1ccc(O)cc1)NC(=O)[C@H](Cc1ccccc1)NC(=O)CCC(=O)NCCCCCC(=O)N(CCCC[C@H](NC(=O)N[C@@H](CCC(=O)O)C(=O)O)C(=O)O)Cc1cccc(Cl)c1` showed a pIC50 in data set [1] of 8.05.
As for `CC(=O)O[C@@]12CO[C@@H]1C[C@H](O)[C@@]1(C)C(=O)[C@H](O)C3=C(C)[C@@H](OC(=O)[C@H](OC(=O)CCCc4cn(CCCNC(=O)[C@H](Cc5ccccc5)NC(=O)[C@H](Cc5ccccc5)NC(=O)CCC(=O)NCCCCCC(=O)N(CCCC[C@H](NC(=O)N[C@@H](CCC(=O)O)C(=O)O)C(=O)O)Cc5ccccc5)nn4)[C@@H](NC(=O)OC(C)(C)C)c4ccccc4)C[C@@](O)([C@@H](OC(=O)c4ccccc4)[C@H]21)C3(C)C` (single isomer, unassigned), the CC50 with CWR22R [2] worked out at 13 nM; in the data set with PC-3 [3], 20 nM. Besides, the Selectivity ratio in [4] was determined as 1.5.
With `CC(=O)O[C@@]12CO[C@@H]1C[C@H](O)[C@@]1(C)C(=O)[C@H](O)C3=C(C)[C@@H](OC(=O)[C@H](O)[C@@H](NC(=O)OC(C)(C)C)c4ccccc4)C[C@@](O)([C@@H](OC(=O)c4ccccc4)[C@H]21)C3(C)C` [DOCETAXEL ANHYDROUS], the Activity entry in data set [5] was “Toxic”; in data set [9], “Toxic”; in the data set with CWR22R [11] it was 88%; in data set [12] it was “Toxic”; with DU-145 [14] it was 84.8%; with DU-145 [16], 261.3%. Besides, the Activity entry in data set [19] is “Toxic”; in data set [20], “Toxic”; in [21] it was “Toxic”; in data set [22] it was “Toxic”; in data set [23], “Toxic”; in data set [24] it was “Non-Toxic”. The Activity entry in data set [25] was “Toxic”; in [26] it was “Toxic”; in data set [27], “Non-Toxic”; in data set [28] it was “Toxic”; in data set [29] it was “Non-Toxic”; in [30], “Toxic”. Also, the Activity result in data set [31] was “Toxic”; in data set [32] it was “Toxic”; in data set [33] it was “Non-Toxic”; in data set [34] it was “Toxic”; in data set [35] it was “Toxic”. In addition, the CC50 with CWR22R [2] and in the data set with PC-3 [3] was 1 nM in each case. Besides, the Selectivity ratio in [4] stood at 1. The outcome in the data set on PC-3 [6], in the data set on CWR22R [7] and with PC-3 [8] was Active. This molecule displayed a solubility in [10] of 3 µg/mL (≈ 3.71 µM). Besides, the inhibition in vivo at 24.8 mg/kg with DU-145 [13] came out at 73.5%. Further, the inhibition in vivo at 12.4 mg/kg in the data set with DU-145 [15] turned out to be 47.1%. The mortality at 192 h in data set [17] was determined as 100%. For the same molecule, in data set [18], the LD50 was 138 mg/kg and 171 µmol/kg.
As for `CC(=O)O[C@@]12CO[C@@H]1C[C@H](O)[C@@]1(C)C(=O)[C@H](O)C3=C(C)[C@@H](OC(=O)[C@H](OC(=O)CCCc4cn(CCCNC(=O)[C@@H](Cc5ccccc5)NC(=O)[C@@H](Cc5ccccc5)NC(=O)CCC(=O)NCCCCCC(=O)N(CCCC[C@H](NC(=O)N[C@@H](CCC(=O)O)C(=O)O)C(=O)O)Cc5ccc(Cl)c(F)c5)nn4)[C@@H](NC(=O)OC(C)(C)C)c4ccccc4)C[C@@](O)([C@@H](OC(=O)c4ccccc4)[C@H]21)C3(C)C`, the cytotoxic concentration (CC50) in the data set on CWR22R [2] is 29 nM; in the data set on PC-3 [3], 52 nM. Further, the Selectivity ratio in data set [4] is reported as 1.8.

By pIC50 is commonly meant the negative decadic logarithm of the IC50, by convention in mol/L. Broadly, the CC50 is the concentration at which the toxic effect on the cells reaches its halfway point. What is called solubility is how much of the substance goes into solution per volume. For orientation: LD50 means the dose at which mortality reaches 50%.
